Results reported in US11964984B2, “TXNIP-TRX complex inhibitors and methods of using the same” (CITY OF HOPE, priority 2020, dated 2024).

Columns and labels:
TXNIP mRNA [1] = experiment: TXNIP mRNA expression in murine RAW macrophages (RT-PCR); assay type: cell-based, mouse; settings: RAW264.7 cells, 25 mM glucose, 72 hours
Experimental: (§1) FIGS. 3A-3B. FIG. 3A: C30 and C38 inhibited TXNIP mRNA expression in murine RAW macrophages. RAW cells were cultured under 25 mM glucose with various concentration of C30 and C38 as indicated for 72 hours. Total RNA was prepared. RT-PCR was performed and data shown are the mean±SEM from triplicates. Statistical analysis was performed for each column vs. high glucose (HG) DMSO using one-way ANOVA: *p<0.0001. FIG. 3B: Treatment with C30 and C38 decreased TNF-α mRNA expression in murine RAW macrophages. RAW cells were cultured under 25 mM glucose with various concentration of C30 and C38 as indicated for 72 hours. Total RNA was prepared. RT-PCR was performed and data shown are the mean±SEM from triplicates. Statistical analysis was performed for each column vs. HG DMSO using one-way ANOVA: *p<0.0001.
(§2) Treatment of murine RAW macrophages with lead compounds C30 and C38 decreased TXNIP and TNF-α. We have also tested the effects of the lead compound in murine RAW264.7 (RAW) macrophages. As in human THP1 cells, C30 and C38 inhibited TXNIP and TNF-α mRNA expression in mouse RAW cells (FIGS. 3A-3B) showing they are also effective in mouse cells. […]
(§3) RNA extraction and quantitative RT-PCR. […] Diluted cDNA was quantified using real-time PCR performed with Power SYBR Green qPCR MasterMix (Applied Biosystem) and 7500 real-time PCR system (Applied Biosystems). […]

TNF-α mRNA = TNF-α mRNA expression in murine RAW macrophages (RT-PCR); assay type: cell-based, mouse; settings: RAW264.7 cells, 25 mM glucose, 72 hours
Experimental: as §1, §2, §3

TXNIP = target: T1, TXNIP (Homo sapiens, UniProt Q9H3M7); experiment: Drug affinity responsive target stability (DARTS) assay, THP1 cell extracts; assay type: binding; settings: THP-1 cell extracts, protease, aliquots at 7 minutes
T1 construct: THP1 cells were lysed with extract buffer; endogenous in cells; host or cells: THP1 cells cultured in RPMI 1640 under 25 mM glucose for 72 hours; cell extracts
T1 sequence (Q9H3M7 1-391): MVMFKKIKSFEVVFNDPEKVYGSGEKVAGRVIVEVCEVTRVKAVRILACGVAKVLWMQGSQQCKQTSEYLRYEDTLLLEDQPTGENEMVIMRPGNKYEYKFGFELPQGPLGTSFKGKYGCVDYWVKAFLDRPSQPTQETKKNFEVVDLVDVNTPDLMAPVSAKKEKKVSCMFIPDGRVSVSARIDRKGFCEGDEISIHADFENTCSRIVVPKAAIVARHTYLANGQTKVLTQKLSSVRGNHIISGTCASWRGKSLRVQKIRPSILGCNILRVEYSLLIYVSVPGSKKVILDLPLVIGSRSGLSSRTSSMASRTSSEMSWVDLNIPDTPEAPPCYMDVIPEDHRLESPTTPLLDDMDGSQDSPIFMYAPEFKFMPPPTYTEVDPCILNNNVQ
Experimental: FIG. 9. Treatment with C30 and C38 protects TXNIP from proteolysis in a DARTS assay. THP1 cell were cultured in RPMI 1640 medium under 25 mM glucose for 72 hours. Cell extracts were prepared. C30 and C38 were added at the indicated concentrations and protease was added except control lanes. Aliquots were withdrawn at 7 minutes and loaded on 10% SDS gels. Control: without protease.
Experimental testing of small molecules: We developed several different bench-based assays to perform rigorous and reproducible tests for the predicted hit molecules. These assays include testing direct binding to TXNIP as well as functional assays including under diabetic high glucose conditions. The assays are: (1) drug affinity responsive target stability test that tests the direct binding of the compounds. In this assay, when a compound binds to its target molecule, it can reduce the rate of its proteolytic digestion. (2) This assay looks for compounds that can interfere with the interaction between TXNIP and TRX in THP-1 monocytes treated with high glucose. TXNIP is highly expressed in cells treated with high glucose, and therefore would have high concentration of TXNIP/TRX complexes in the cell extract. Co-immunoprecipitation was done in these extracts through adding TRX antibody, and then the effects of compounds added were tested. […]

TXNIP mRNA [2] = experiment: TXNIP expression in murine blood after oral dosing (RT-PCR); assay type: in vivo, C57BL/6 mice; settings: 90 mg/kg oral gavage daily for five days, 96 hours after last dose
Experimental: FIG. 16. Compounds C30 and C38 reduce TXNIP expression in murine blood. Twelve male C57BL/6 mice were divided into three groups (vehicle, C30 and C38). They received 90 mg/kg of the indicated compounds via oral gavage daily for five days. Animals were humanely euthanized 96 hours after administration of the last drug dose. Blood samples were collected for total RNA extraction. RT-PCR was performed in triplicate and data shown are the mean±SEM. Statistical analysis was performed using one-way ANOVA: *p<0.001.
The effects of compounds C30 and C38 at single high dose of 90 mg/kg. Twelve male mice were divided into three groups: 1) Control group (4 mice), 2) compound C30 (4 mice) and 3) compound C38 (4 mice). By oral gavage, animals were given 90 mg/kg of agent daily for 5 consecutive days (vehicle: 30% Solutol in saline). Mice were weighed every day during the treatment period. They were humanely euthanized 96 hours after the last dose. Tissues including the pancreas, liver and kidneys were collected (snap frozen in liquid nitrogen) for RNA extraction. […] Those given compound C30 lost ˜5% of body weight (FIG. 15).
Expression of TXNIP in vivo in treated mice.

| SMILES | TXNIP mRNA expression (TXNIP mRNA [1]) | TNF-α mRNA expression (TNF-α mRNA) | concentration from which TXNIP is protected from proteolysis (TXNIP) | RNA expression level of TXNIP in blood (TXNIP mRNA [2]) |
| --- | --- | --- | --- | --- |
| c1ccc(CCNc2ncnc3c2oc2ccccc23)cc1 [Compound C38] | inhibited | inhibited | ~0.5 µM | reduced |
| COc1cc(N2CC[C@@H](c3ccc4ccccc4c3)[C@H](O)C2)nc(N)n1 [Compound C30] | inhibited | inhibited | ~0.5 µM | reduced |
